Laboratory results as given in the supplement of paper PMC11368000.

Assays:
Details in all cases: exposure time: 90 min
1518 [1] = donor line of iPSC-derived cardiomyocytes; experiment: POD (EC10) for decrease in total cell number (cytotoxicity) vs vehicle; higher = less potent (higher point of departure)
In short: (§1)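 After 14 days of culture in 384-well plates, human iPSC-derived cardiomyocytes from 16 donors received 0.1, 1, 10 or 100 µM (final, 0.5% DMSO) for 90 min at 37 °C. Nuclei were then counted per field in MetaXpress from 10× images after Hoechst 33342 staining, and a 10% decrease in vehicle-normalised counts served as the benchmark. For each donor, the cytotoxicity point of departure came from a hierarchical Bayesian Hill fit.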

1565 = donor line of iPSC-derived cardiomyocytes; experiment: as above
In short: as §1

30171 = donor line of iPSC-derived cardiomyocytes; experiment: as above
In short: as §1

1118 = donor line of iPSC-derived cardiomyocytes; experiment: as above
In short: as §1

1531 = donor line of iPSC-derived cardiomyocytes; experiment: as above
In short: as §1

1516 [2] = donor line of iPSC-derived cardiomyocytes; experiment: as above
In short: as §1

1083 = donor line of iPSC-derived cardiomyocytes; experiment: as above
In short: as §1

1434 = donor line of iPSC-derived cardiomyocytes; experiment: as above
In short: as §1

1392 [3] = donor line of iPSC-derived cardiomyocytes; experiment: as above
In short: as §1

30145 [4] = donor line of iPSC-derived cardiomyocytes; experiment: as above
In short: as §1

1309 [5] = donor line of iPSC-derived cardiomyocytes; experiment: as above
In short: as §1

20032 = donor line of iPSC-derived cardiomyocytes; experiment: as above
In short: as §1

1518 [6] = experiment: POD (EC95) for loss of peak frequency (asystole) vs vehicle; higher = less potent (higher point of departure)
Method: (§2)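 Human iPSC-derived cardiomyocytes from 16 donors were exposed for 90 min at 37 °C to each PFAS at 0.1, 1, 10 and 100 µM in 0.5% DMSO, 384-well plates. Kinetic Ca2+ flux (FLIPR) and Hoechst nuclei counts were normalised to vehicle wells and fitted with a hierarchical Bayesian Hill model to give donor-specific PODs: EC05 for beat-rate increase or decrease and for decay-to-rise ratio increase (QT proxy), EC95 for peak-frequency loss (asystole), EC10 for total cell number loss. 0.03 µM is the lower bound.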

1516 [7] = experiment: as above
Method: as §2

20084 = donor line of iPSC-derived cardiomyocytes; experiment: as above
Method: as §2

1535 = donor line of iPSC-derived cardiomyocytes; experiment: as above
Method: as §2

1392 [8] = experiment: as above
Method: as §2

1368 = donor line of iPSC-derived cardiomyocytes; experiment: as above
Method: as §2

30145 [9] = experiment: as above
Method: as §2

1309 [10] = experiment: as above
Method: as §2

SMILES	POD vs vehicle 1518 [1]	POD vs vehicle 1565	POD vs vehicle 30171	POD vs vehicle 1118	POD vs vehicle 1531	POD vs vehicle 1516 [2]	POD vs vehicle 1083	POD vs vehicle 1434	POD vs vehicle 1392 [3]	POD vs vehicle 30145 [4]	POD vs vehicle 1309 [5]	POD vs vehicle 20032	POD vs vehicle 1518 [6]	POD vs vehicle 1516 [7]	POD vs vehicle 20084	POD vs vehicle 1535	POD vs vehicle 1392 [8]	POD vs vehicle 1368	POD vs vehicle 30145 [9]	POD vs vehicle 1309 [10]
O=S(=O)(O)CCC(F)(F)C(F)(F)C(F)(F)C(F)(F)C(F)(F)C(F)(F)F [6:2 Fluorotelomer sulfonic acid]	> 100 µM	> 100 µM	> 100 µM	> 100 µM	> 100 µM	> 100 µM	> 100 µM	> 100 µM	> 100 µM	> 100 µM	> 100 µM	> 100 µM	> 100 µM	> 100 µM	> 100 µM	> 100 µM	> 100 µM	> 100 µM	> 100 µM	> 100 µM
OCCC(F)(F)C(F)(F)C(F)(F)C(F)(F)C(F)(F)C(F)(F)C(F)(F)C(F)(F)F [8:2 Fluorotelomer alcohol]	> 100 µM	> 100 µM	> 100 µM	> 100 µM	> 100 µM	> 100 µM	> 100 µM	> 100 µM	> 100 µM	> 100 µM	> 100 µM	> 100 µM	> 100 µM	> 100 µM	> 100 µM	> 100 µM	> 100 µM	> 100 µM	> 100 µM	> 100 µM
O=S(=O)(O)CCC(F)(F)C(F)(F)C(F)(F)C(F)(F)C(F)(F)C(F)(F)C(F)(F)C(F)(F)F [8:2 Fluorotelomer sulfonic acid]	> 100 µM	> 100 µM	> 100 µM	> 100 µM	> 100 µM	> 100 µM	> 100 µM	> 100 µM	> 100 µM	> 100 µM	> 100 µM	> 100 µM	> 100 µM	> 100 µM	> 100 µM	> 100 µM	> 100 µM	> 100 µM	89.3 µM	> 100 µM
O=C(O)C(F)(F)C(F)(F)C(F)(F)C(F)(F)C(F)(F)C(F)(F)C(F)(F)C(F)(F)Cl [9-Chloro-perfluorononanoic_acid]	> 100 µM	> 100 µM	30.5 µM	> 100 µM	> 100 µM	56.2 µM	> 100 µM	36.7 µM	> 100 µM	> 100 µM	> 100 µM	> 100 µM	> 100 µM	90.9 µM	> 100 µM	> 100 µM	> 100 µM	> 100 µM	> 100 µM	> 100 µM
O=P(O)(O)CCC(F)(F)C(F)(F)C(F)(F)C(F)(F)C(F)(F)C(F)(F)C(F)(F)C(F)(F)F [((Perfluorooctyl)ethyl)phosphonic_acid]	> 100 µM	> 100 µM	> 100 µM	> 100 µM	> 100 µM	> 100 µM	> 100 µM	> 100 µM	> 100 µM	> 100 µM	> 100 µM	> 100 µM	> 100 µM	> 100 µM	> 100 µM	> 100 µM	> 100 µM	> 100 µM	> 100 µM	> 100 µM
O=C([O-])C(F)(F)C(F)(F)C(F)(F)C(F)(F)C(F)(F)C(F)(F)C(F)(F)F.[NH4+] [Ammonium_perfluorooctanoate]	> 100 µM	> 100 µM	> 100 µM	> 100 µM	> 100 µM	> 100 µM	> 100 µM	> 100 µM	> 100 µM	> 100 µM	> 100 µM	> 100 µM	> 100 µM	> 100 µM	> 100 µM	> 100 µM	> 100 µM	> 100 µM	> 100 µM	> 100 µM
OCC(F)(F)C(F)(F)C(F)(F)C(F)(F)C(F)(F)C(F)F [Dodecafluoroheptanol]	> 100 µM	> 100 µM	46.4 µM	95.5 µM	> 100 µM	> 100 µM	> 100 µM	> 100 µM	> 100 µM	> 100 µM	> 100 µM	58.4 µM	38.1 µM	48.2 µM	48.6 µM	46.3 µM	45 µM	35.7 µM	47.9 µM	50.3 µM
OCC(F)(F)C(F)(F)C(F)(F)F [Heptafluorobutanol]	> 100 µM	> 100 µM	> 100 µM	> 100 µM	> 100 µM	> 100 µM	> 100 µM	> 100 µM	> 100 µM	> 100 µM	> 100 µM	> 100 µM	> 100 µM	> 100 µM	> 100 µM	> 100 µM	> 100 µM	> 100 µM	> 100 µM	> 100 µM
NC(=O)C(F)(F)C(F)(F)C(F)(F)F [Heptafluorobutyramide]	> 100 µM	> 100 µM	> 100 µM	> 100 µM	> 100 µM	> 100 µM	> 100 µM	> 100 µM	> 100 µM	> 100 µM	> 100 µM	> 100 µM	> 100 µM	> 100 µM	> 100 µM	> 100 µM	> 100 µM	> 100 µM	> 100 µM	> 100 µM
OCC(F)(F)C(F)(F)C(F)(F)CO [Hexafluoroamylene_glycol]	> 100 µM	> 100 µM	> 100 µM	> 100 µM	> 100 µM	> 100 µM	> 100 µM	> 100 µM	> 100 µM	> 100 µM	> 100 µM	> 100 µM	> 100 µM	> 100 µM	> 100 µM	> 100 µM	> 100 µM	> 100 µM	> 100 µM	> 100 µM
COC(=O)C(F)(F)C(F)(F)OC(F)(C(F)(F)F)C(F)(F)OC(F)=C(F)F (stereo not given) [Methyl_perfluoro(3-(1-ethenyloxypropan-2-yloxy)propanoate)]	> 100 µM	> 100 µM	> 100 µM	> 100 µM	> 100 µM	> 100 µM	> 100 µM	> 100 µM	> 100 µM	> 100 µM	> 100 µM	0.591 µM	> 100 µM	> 100 µM	> 100 µM	> 100 µM	> 100 µM	> 100 µM	> 100 µM	> 100 µM
CN(CCO)S(=O)(=O)C(F)(F)C(F)(F)C(F)(F)C(F)(F)C(F)(F)C(F)(F)C(F)(F)C(F)(F)F [N-Methyl-N-(2-hydroxyethyl)perfluorooctanesulfonamide]	> 100 µM	> 100 µM	> 100 µM	> 100 µM	> 100 µM	> 100 µM	> 100 µM	> 100 µM	> 100 µM	> 100 µM	> 100 µM	> 100 µM	> 100 µM	> 100 µM	> 100 µM	> 100 µM	> 100 µM	> 100 µM	> 100 µM	> 100 µM
NC(=O)C(F)(F)C(F)(F)C(F)(F)C(F)(F)F [Nonafluoropentanamide]	> 100 µM	> 100 µM	> 100 µM	> 100 µM	> 100 µM	> 100 µM	> 100 µM	> 100 µM	> 100 µM	> 100 µM	> 100 µM	> 100 µM	> 100 µM	> 100 µM	> 100 µM	> 100 µM	> 100 µM	> 100 µM	> 100 µM	> 100 µM
NC(=O)C(F)(F)C(F)(F)C(F)(F)C(F)(F)C(N)=O [Octafluoroadipamide]	> 100 µM	> 100 µM	> 100 µM	> 100 µM	> 100 µM	> 100 µM	> 100 µM	> 100 µM	> 100 µM	> 100 µM	> 100 µM	> 100 µM	> 100 µM	> 100 µM	> 100 µM	> 100 µM	> 100 µM	> 100 µM	> 100 µM	> 100 µM
O=C(O)C(F)(F)C(F)(F)C(F)(F)OC(F)(F)F [Perfluoro(4-methoxybutanoic)_acid]	> 100 µM	> 100 µM	> 100 µM	> 100 µM	> 100 µM	> 100 µM	> 100 µM	> 100 µM	> 100 µM	> 100 µM	> 100 µM	> 100 µM	> 100 µM	> 100 µM	> 100 µM	> 100 µM	> 100 µM	> 100 µM	> 100 µM	> 100 µM
O=C(O)C(F)(F)OC(F)(F)C(F)(F)OC(F)(F)C(F)(F)OC(F)(F)C(F)(F)C(F)(F)C(F)(F)F [Perfluoro-3,6,9-trioxatridecanoic_acid]	> 100 µM	> 100 µM	59.5 µM	> 100 µM	> 100 µM	55.4 µM	> 100 µM	33.3 µM	> 100 µM	> 100 µM	> 100 µM	> 100 µM	> 100 µM	84.8 µM	> 100 µM	> 100 µM	> 100 µM	> 100 µM	> 100 µM	> 100 µM
O=C(O)C(F)(F)OC(F)(F)C(F)(F)OC(F)(F)F [Perfluoro-3,6-dioxaheptanoic_acid]	> 100 µM	> 100 µM	> 100 µM	> 100 µM	> 100 µM	> 100 µM	> 100 µM	> 100 µM	> 100 µM	> 100 µM	> 100 µM	> 100 µM	> 100 µM	> 100 µM	> 100 µM	> 100 µM	> 100 µM	> 100 µM	> 100 µM	> 100 µM
O=C(O)C(F)(F)OC(F)(F)C(F)(F)OC(F)(F)C(=O)O [Perfluoro-3,6-dioxaoctane-1,8-dioic_acid]	> 100 µM	> 100 µM	> 100 µM	> 100 µM	> 100 µM	> 100 µM	> 100 µM	> 100 µM	> 100 µM	> 100 µM	> 100 µM	> 100 µM	> 100 µM	> 100 µM	> 100 µM	> 100 µM	> 100 µM	> 100 µM	> 100 µM	> 100 µM
O=C(O)C(F)(F)C(F)(F)OC(F)(F)F [Perfluoro-3-methoxypropanoic_acid]	> 100 µM	> 100 µM	> 100 µM	> 100 µM	> 100 µM	> 100 µM	> 100 µM	> 100 µM	> 100 µM	> 100 µM	> 100 µM	> 100 µM	> 100 µM	> 100 µM	> 100 µM	> 100 µM	> 100 µM	> 100 µM	> 100 µM	> 100 µM
